Test results taken from patent US9708316B2 (BRISTOL-MYERS SQUIBB COMPANY, priority 2014, dated 2017).

What was measured:
HIS-TGFβR1 T204D = biological target: T1, HIS-TGFβR1 T204D (Homo sapiens, UniProt P36897, T204D); experiment: HTRF probe-displacement assay, HIS-TGFβR1 T204D; type: binding; conditions: read-out: TGFβR1 (μM) IC50
T1 sequence (P36897 34-503 T204D): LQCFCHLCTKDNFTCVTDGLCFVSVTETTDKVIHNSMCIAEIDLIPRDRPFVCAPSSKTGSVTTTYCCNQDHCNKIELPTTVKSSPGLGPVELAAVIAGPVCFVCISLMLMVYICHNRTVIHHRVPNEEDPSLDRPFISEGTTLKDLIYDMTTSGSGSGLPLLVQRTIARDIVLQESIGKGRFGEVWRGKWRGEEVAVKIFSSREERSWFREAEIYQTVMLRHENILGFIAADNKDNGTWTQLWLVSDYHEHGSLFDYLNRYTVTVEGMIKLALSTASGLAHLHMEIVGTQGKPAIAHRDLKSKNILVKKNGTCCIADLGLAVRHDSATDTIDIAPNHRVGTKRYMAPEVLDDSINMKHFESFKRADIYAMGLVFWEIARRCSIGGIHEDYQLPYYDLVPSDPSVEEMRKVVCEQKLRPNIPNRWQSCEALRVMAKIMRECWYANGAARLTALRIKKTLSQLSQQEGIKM

HIS-TGFβR2 WT = HIS-TGFβR2 WT (Homo sapiens, UniProt P37173); experiment: HTRF probe-displacement assay, HIS-TGFβR2 WT; type: binding
Chain of HIS-TGFβR2 WT (P37173 23-567): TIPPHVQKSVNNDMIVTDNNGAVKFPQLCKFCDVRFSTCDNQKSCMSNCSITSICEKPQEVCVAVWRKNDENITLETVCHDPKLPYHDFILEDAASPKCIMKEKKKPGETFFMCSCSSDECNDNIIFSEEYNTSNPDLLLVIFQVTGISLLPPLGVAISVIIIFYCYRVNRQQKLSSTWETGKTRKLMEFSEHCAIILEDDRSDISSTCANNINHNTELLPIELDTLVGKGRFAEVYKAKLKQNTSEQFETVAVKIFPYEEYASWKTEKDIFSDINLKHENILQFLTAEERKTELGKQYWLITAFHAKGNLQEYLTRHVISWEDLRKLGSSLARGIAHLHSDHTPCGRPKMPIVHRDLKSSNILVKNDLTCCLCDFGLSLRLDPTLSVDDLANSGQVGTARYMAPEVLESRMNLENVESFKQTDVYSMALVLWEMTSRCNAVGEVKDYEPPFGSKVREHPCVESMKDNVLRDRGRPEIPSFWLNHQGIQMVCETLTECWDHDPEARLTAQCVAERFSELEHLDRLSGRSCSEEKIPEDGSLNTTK

| IC50 (HIS-TGFβR1 T204D) | IC50 (HIS-TGFβR2 WT) | SMILES |
| --- | --- | --- |
| 0.008 µM | 1.55 µM | O=C(CO)Nc1cc(-c2[nH]c3cc(Cl)cnc3c2-c2ccc(F)cn2)ccn1 [Example 72, N-{4-[6-Chloro-3-(5-fluoropyridin-2-yl)-1H-pyrrolo[3,2-b]pyridin-2-yl]pyridin-2-yl}-2-hydroxyacetamide] |
| 0.003 µM | 0.407 µM | CC(=O)Nc1cc(-c2[nH]c3cc(F)cnc3c2-c2ncc(C)s2)ccn1 [Example 183, N-(4-(6-Fluoro-3-(5-methylthiazol-2-yl)-1H-pyrrolo[3,2-b]pyridin-2-yl)pyridin-2-yl)acetamide] |
| 0.002 µM | > 15 µM | COc1ccc(-c2c(-c3ccnc(NC(C)=O)c3)[nH]c3cc(C#N)cnc23)nc1 [Example 92, N-{4-[6-Cyano-3-(5-methoxypyridin-2-yl)-1H-pyrrolo[3,2-b]pyridin-2-yl]pyridin-2-yl}acetamide] |
| 0.001 µM | 8.75 µM | [2H]C([2H])([2H])Oc1ccc(-c2c(-c3ccnc(NC(C)=O)c3)[nH]c3cc(OC)cnc23)nc1 [Example 112, N-(4-(6-Methoxy-3-(5-(methoxy-d3)pyridin-2-yl)-1H-pyrrolo[3,2-b]pyridin-2-yl)pyridin-2-yl)acetamide] |
| 0.004 µM | 0.46 µM | CC(=O)Nc1cc(-c2[nH]c3cc(Cl)cnc3c2-c2ccc(F)cn2)ccn1 [Example 42, N-{4-[6-Chloro-3-(5-fluoropyridin-2-yl)-1H-pyrrolo[3,2-b]pyridin-2-yl]pyridin-2-yl}acetamide] |
| 0.0055 µM | 0.111 µM | CC(=O)Nc1cc(-c2[nH]c3cccnc3c2-c2nc(CO)cs2)ccn1 [Example 204, N-(4-(3-(4-(Hydroxymethyl)thiazol-2-yl)-1H-pyrrolo[3,2-b]pyridin-2-yl)pyridin-2-yl)acetamide] |
| 0.0061 µM | 0.118 µM | COc1ccc(-c2c(-c3ccnc(NC(C)=O)c3)[nH]c3c(C(F)F)ccnc23)cn1 [Example 213, N-(4-(7-(Difluoromethyl)-3-(6-methoxypyridin-3-yl)-1H-pyrrolo[3,2-b]pyridin-2-yl)pyridin-2-yl)acetamide] |
